Measurements reported in publication PMC2408617, “Gametogenesis in Malaria Parasites Is Mediated by the cGMP-Dependent Protein Kinase” (PLoS Biology, 2008).
Where two headings read alike, the source gives them in different places.

Legend:
[1] = system: P. falciparum gametocytes (WT / Pfrh3- control); assay: Gametogenesis assay: rounding up, WT/control gametocytes; type: cell-based, Plasmodium falciparum; conditions: for stimulation of rounding up: live gametocytes, zaprinast in absence of XA
Procedure: (§1) P. falciparum gametocytes were produced from the 3D7 clone in human A+ erythrocytes with 10% human serum (National Blood Service), and enriched using Nycodenz (Nycoprep 1.077; Axis-Shield) centrifugation as previously described. For gametogenesis, cells were resuspended at 5 × 10^6 parasites per millilitre and induced with either 20 μM XA or 25–400 μM zaprinast in complete medium, and a reduction (of >5 °C) in temperature. For gametogenesis assays, 10 min post induction, cells were mounted on a wet smear. […] Test reagents including zaprinast, BAPTA-AM, compound 1, and compound 2 were resuspended in DMSO as stock solutions and diluted in complete medium for gametogenesis assays, with the XA stock resuspended in RPMI 1640. The maximum final DMSO concentration in the gametogenesis medium was 0.4%, which was used as a negative control. […] Compound 1 and compound 2 were added at the point of activation with either XA or zaprinast, whereas cells were preincubated with 100 μM BAPTA-AM as previously described. Statistical multivariate analysis was carried out using Poisson regression (Stata 9.2; StataCorp) to compare the effects of genetic background (mutant vs. WT) and experimental replicate (included as categorical data in the analysis) on the rates of rounding up at individual drug concentrations. For each drug concentration, the mutants were tested separately against the WT control, and the resultant output was anti-logged to give the relative risk (and 95% confidence interval) for rounding up with genetic background.

[2] = system: P. falciparum gametocytes; assay: Gametogenesis assay: exflagellation; type: cell-based, Plasmodium falciparum; conditions: for inhibition of exflagellation: gametocytes stimulated with XA or zaprinast
Procedure: as §1

[3] = system: P. falciparum gametocytes; assay: Gamete emergence from erythrocytes, IFA with anti-Band 3 antibody; type: cell-based, Plasmodium falciparum; conditions: pretreatment with BAPTA-AM
Text: Figure 2 Intracellular Ca^2+ Is Not Required for the Initial Step of P. falciparum Gametogenesis To investigate the role of intracellular Ca^2+ in rounding up and exflagellation, stage V Pfrh3^− control gametocytes were pretreated with the BAPTA-AM (BP) before stimulation of gametogenesis with either XA or zaprinast (ZP). (A) (Upper panel) Gametocytes were scored as either round or crescent-shaped, and plotted as percentage rounded-up. […] (Lower panel) The number of centres of exflagellation per 10,000 gametocytes was scored. […] (B) Emergence from host erythrocytes before and after stimulation of gametogenesis with or without BAPTA-AM was scored using IFA with an anti-erythrocyte Band 3 monoclonal antibody. The proportion of cells not reacting with the antibody (indicative of complete emergence) was counted and plotted as a percentage.
For IFA, 3 × 10^6 mature P. falciparum gametocytes were fixed in paraformaldehyde according to a method used for P. berghei. Cells were washed thoroughly and allowed to settle on wells coated with 0.01% poly-L-lysine solution. […] Digital images were recorded using a side-mounted 1K 1.3M pixel High Sensitivity AMT Advantage ER CCD camera system.

[4] = system: native PDE activity in P. falciparum particulate fractions; assay: PDE assay: cGMP hydrolysis by native parasite particulate fractions; type: biochemical, Plasmodium falciparum; conditions: for IC50: cGMP substrate; for effect on native PDE enzyme activity: parasite particulate fractions
Procedure: PDE activity in native parasite fractions was measured using a modification of a previously published method. Parasites were frozen in liquid nitrogen and stored at −80 °C until use. Parasites were resuspended in 500 μl of lysis buffer (20 mM hepes and 250 mM sucrose [pH 7.0]), subjected to five cycles of freeze–thaw in liquid nitrogen and pelleted at 100,000 g for 30 min. Particulate fractions were resuspended in lysis buffer containing EDTA-free protease inhibitors (Roche). PDE assays were carried out in triplicate wells of a 96-well plate in the presence of [^3H]-labelled cGMP (GE Healthcare) for 30 min at 37 °C. Reactions were terminated by boiling the plate for 1 min, followed by a 3-min centrifugation at 900 g. One unit of alkaline phosphatase was added to each well and incubated for 30 min at 37 °C. [^3H]-labelled guanosine was separated from the radiolabelled cGMP substrate using ion exchange (BioRad AG 1 × 8 resin). Supernatants containing the [^3H]-labelled guanosine product were added to scintillation fluid (Optiphase Supermix; Wallac). Scintillation was measured using a Wallac 1450 Microbeta Liquid Scintillation Counter (Perkin Elmer) and PDE activity was expressed in picomoles cGMP/minute/milligram protein. Inhibition assays were carried out in the presence of compounds dissolved in DMSO. PDE assays for specific activity and IC50 determination were carried out at a native lysate dilution that gave 30% cGMP/cAMP hydrolysis.
Supplementary file pbio.0060139.st001.doc: Table S1 The Effect of PDE Inhibitors on Particulate Fractions Isolated from P. falciparum Sexual and Asexual Blood Stage Parasites IC50 values (the concentration of compound that gave 50% inhibition of native PDE activity) are mean ± SEM in micromolar and were calculated using the Prism software package (GraphPad Software). Percentage inhibition data were fitted to a sigmoidal dose-response curve using nonlinear regression. n.d., not determined; >200, sufficient inhibition was not observed for an IC50 calculation. The specific activity of cGMP hydrolysis measured in the individual life cycle stages (at a substrate concentration of 0.82 μM) is listed in the lower row. Specific activity data are mean ± SEM in picomoles cGMP/minute/milligram. (43 KB DOC) Click here for additional data file.

PfPKGT618Q gametocytes = assay: Gametogenesis assay: rounding up, PfPKGT618Q gametocytes; type: cell-based, Plasmodium falciparum
Procedure: as §1
Supplementary file pbio.0060139.st002.doc: Table S2 Poisson Regression Analysis for Compound 1 Sensitivity of Rounding Up of Both Mutants Compared to WT Each rounding-up measurement was made by counting 200 cells and scoring for rounding up (or not rounding up). At each compound 1 concentration, rounding-up replicate counts for both clones were compared to WT values separately by Poisson regression analysis using the Stata 9.2 package (StataCorp). Where n < 2 (indicated by n.d.), data were excluded from the analysis. Compound 1 concentration (comp1) is shown in micromolar. The p-values from this analysis and the relative risk (RR) of rounding up with genetic background (and 95% confidence intervals [CI]) are shown. (38 KB DOC) Click here for additional data file.

Eimeria = conditions: cited from earlier work
T. gondii = conditions: cited from earlier work
[5] = gametocyte particulate fraction, mean, read-out: IC50, inhibition of native PDE activity, Gametocyte
[6] = schizont particulate fraction, read-out: IC50, inhibition of native PDE activity, Schizont
[7] = ring particulate fraction, read-out: IC50, inhibition of native PDE activity, Ring

SMILES	IC50 [4, 5] [µM]	effect on native PDE enzyme activity [4]	IC50 [4, 6] [µM]	IC50 [4, 7] [µM]	other results
CC(=O)OCOC(=O)CN(CC(=O)OCOC(C)=O)c1ccccc1OCCOc1ccccc1N(CC(=O)OCOC(C)=O)CC(=O)OCOC(C)=O [BAPTA-AM]					inhibition of rounding up ([1]; control gametocytes stimulated with XA (or zaprinast)): failed to inhibit the rounding up; inhibition of exflagellation [2]: blocked exflagellation; emergence of gametes from erythrocytes [3]: reduced emergence of gametes from erythrocytes
Cn1c(=O)c2c(ncn2C)n(C)c1=O [Caffeine]	> 200	little or no effect	> 200		
OCCN(CCO)c1nc(N2CCCCC2)c2nc(N(CCO)CCO)nc(N3CCCCC3)c2n1 [Dipyridamole]	> 200		7	6.5	
CCOC(=O)c1cnc2c(cnn2CC)c1NN=C(C)C [Etazolate]			17.6	20.7	
CC(C)Cn1c(=O)n(C)c(=O)c2[nH]cnc21 [IBMX]	> 200	little or no effect	> 200	> 200	
COc1ccc(Cc2nccc3cc(OC)c(OC)cc23)cc1OC [Papaverine]	> 200		173	63.4	
COc1ccc(C2CNC(=O)C2)cc1OC1CCCC1 (stereo not drawn) [Rolipram]	> 200		> 200	> 200	
CCCc1nn(C)c2c(=O)[nH]c(-c3cc(S(=O)(=O)N4CCN(C)CC4)ccc3OCC)nc12 [Sildenafil]	75.6		22.5	19.4	
Cn1c(=O)c2[nH]cnc2n(C)c1=O [Theophylline]	> 200	little or no effect	> 200		
COc1cc2c(cc1OC)-c1c/c(=N\c3c(C)cc(C)cc3C)n(C)c(=O)n1CC2 [Trequinsin]	193		126	26.7	
O=C(O)c1cc(O)c2cccc(O)c2n1 [XA, xanthurenic acid]					stimulation of rounding up [1]: became spherical
CCCOc1ccccc1-c1nc2nn[nH]c2c(=O)[nH]1 [Zaprinast, zaprinast]	33.7 ± 1.3	effective inhibitor	3 ± 1.2	3.5	stimulation of rounding up [1]: stimulated rounding up; level of rounding up induced compared with XA ([1]; zaprinast 400 μM): almost equivalent to those triggered by XA; stimulation of exflagellation ([2]; in absence of XA): triggered both rounding up and exflagellation in a dose-dependent manner; level of exflagellation induced compared with XA ([2]; zaprinast 400 μM): almost equivalent to those triggered by XA
CN(C)Cc1ccn2c(-c3ccnc(N)n3)c(-c3ccc(F)cc3)nc2c1 [compound 2, 4-[7-[(dimethylamino)methyl]-2-(4-fluorophenyl)imidazo[1,2-a]pyridine-3-yl]pyrimidin-2-amine]					inhibitory effects on rounding up of PfPKGT618Q gametocytes (PfPKGT618Q gametocytes; 2 μM, stimulation with zaprinast or XA): absence of inhibitory effects; lower sensitivity of PfPKGT618Q gametocytes than control cells (rounding up) (PfPKGT618Q gametocytes; range of inhibitor concentrations, approximately): 10–20 fold; inhibition of exflagellation [2]: inhibited exflagellation in a dose-dependent manner; difference in sensitivity of exflagellation between control and PfPKGT618Q cell lines ([2]; unpublished data): no significant difference in sensitivity; effect on Eimeria infection in chickens (Eimeria): cure; effect on infection by T. gondii in mice (T. gondii): cure
